Data set [1] has as its system Escherichia coli. The data set is described as follows: Antibiofilm activity against Escherichia coli O157:H7 assessed as repression of csgG expression at 20 ug/ml after 5 hrs by qRT-PCR analysis. The class given is functional, organism-based.
Data set [2] has as its system Escherichia coli. The data set is described as follows: Antibiofilm activity against Escherichia coli O157:H7 assessed as induction of motB gene expression at 20 ug/ml after 5 hrs by qRT-PCR analysis. The class given is functional, organism-based.
In data set [3] the test system is Escherichia coli. The data set is described as follows: Antibiofilm activity against Escherichia coli O157:H7 assessed as repression of csgD expression at 20 ug/ml after 5 hrs by qRT-PCR analysis. The class given is functional, organism-based.
For data set [4], the system named is Escherichia coli. The data set is described as follows: Antibiofilm activity against Escherichia coli O157:H7 assessed as repression of csgF expression at 20 ug/ml after 5 hrs by qRT-PCR analysis. It is filed as functional, organism-based.
Data set [5] has as its system Escherichia coli. The data set is described as follows: Antibiofilm activity against Escherichia coli O157:H7 assessed as induction of qseB gene expression at 20 ug/ml after 5 hrs by qRT-PCR analysis. The class given is functional, organism-based.
In data set [6] the test system is Escherichia coli. The data set is described as follows: Antibiofilm activity against Escherichia coli O157:H7 after 24 hrs by spectrophotometry. It is filed as functional, organism-based.
For data set [7], the system named is Escherichia coli. The data set is described as follows: Antibiofilm activity against Escherichia coli O157:H7 assessed as repression of csgC expression at 20 ug/ml after 5 hrs by qRT-PCR analysis. It is filed as functional, organism-based.
In data set [8] the test system is Escherichia coli. The data set is described as follows: Reduction in fimbriae production in Escherichia coli O157:H7 biofilm grown on nylon filter at 20 ug/ml after 24 hrs by scanning electron microscopy. The class given is functional, organism-based.
Data set [9] relates to Escherichia coli. As to the kind of experiment: Antibiofilm activity against Escherichia coli O157:H7 assessed as repression of csgB expression at 20 ug/ml after 5 hrs by qRT-PCR analysis. It is filed as functional, organism-based.
In data set [10] the test system is Escherichia coli. The data set is described as follows: Antibiofilm activity against Escherichia coli O157:H7 assessed as induction of fliA gene expression at 20 ug/ml after 5 hrs by qRT-PCR analysis. The class given is functional, organism-based.
Data set [11] relates to Escherichia coli. The data set is described as follows: Antibiofilm activity against Escherichia coli O157:H7 assessed as effect on rrsG expression at 20 ug/ml after 5 hrs by qRT-PCR analysis. The class given is functional, organism-based.
The test system of data set [12] is Escherichia coli. The data set is described as follows: Antimicrobial activity against Escherichia coli O157:H7 by spectrophotometry. The class given is organism-based. The conditions noted are these: in vivo.
The subject of data set [13] is Escherichia coli. As to the kind of experiment: Antibiofilm activity against Escherichia coli O157:H7 assessed as repression of csgA expression at 20 ug/ml after 5 hrs by qRT-PCR analysis. The class given is functional, organism-based.
Data set [14] has as its system Escherichia coli. The data set is described as follows: Antibiofilm activity against Escherichia coli O157:H7 assessed as induction of flhD gene expression at 20 ug/ml after 5 hrs by qRT-PCR analysis. It is filed as functional, organism-based.
Data set [15] has as its system Pseudomonas aeruginosa. As to the kind of experiment: Antibiofilm activity against Pseudomonas aeruginosa PA14 after 24 hrs by GFP-based confocal laser microscopy. The class given is functional, organism-based.
Data set [16] deals with Pseudomonas aeruginosa. The data set is described as follows: Antibiofilm activity against Pseudomonas aeruginosa PA14 after 24 hrs by spectrophotometry. The class given is functional, organism-based.
In data set [17] the test system is Escherichia coli. The data set is described as follows: Antibiofilm activity against Escherichia coli O157:H7 after 24 hrs by GFP-based confocal laser microscopy. The class given is functional, organism-based.
Data set [18] has as its system Escherichia coli. The data set is described as follows: Antibiofilm activity against Escherichia coli O157:H7 at 5 ug/ml after 24 hrs by spectrophotometry. Conditions: O157:H7, 24 h. The class given is functional.
Data set [19] deals with Escherichia coli. The data set is described as follows: Antimicrobial activity against Escherichia coli O157:H7 assessed as growth inhibition up to 50 ug/ml by spectrophotometry. The class given is organism-based. The conditions noted are these: in vivo.
Data set [20] relates to Pseudomonas aeruginosa. The data set is described as follows: Antibiofilm activity against Pseudomonas aeruginosa PA14 assessed as growth inhibition at 50 ug/ml by spectrophotometry. The class given is functional, organism-based.

Calls of active or inactive are those of the source. The calls are words filed in the database; no cut-off is given here.

On to `Oc1ccc(/C=C/c2cc(O)cc3c2[C@@H](c2cc(O)cc(O)c2)[C@H](c2ccc(O)cc2)O3)cc1` [EPSILON-VINIFERIN], for which the result in data set [1], in data set [3], in [4], in data set [7], in data set [8] and in data set [9] was Active. Besides, the outcome in data set [13] was Active. Moreover, the result in data set [2], in data set [5], in data set [10], in data set [11] and in data set [14] was inactive. In data set [6], the inhibition result is “Dose-dependent effect”. Moreover, the “growth inhibition (GI)” value in [12] is recorded as “Dose-dependent effect”.
Turning to `Oc1ccc([C@H]2c3c(O)cc(O)cc3[C@@H]3c4c(cc(O)c5c4[C@@H]2[C@@H](c2ccc(O)cc2)[C@@H]5c2cc(O)cc(O)c2)O[C@@H]3c2ccc(O)cc2)cc1` (relative stereo), the result in data set [1], in [3], in [4], in data set [7], in data set [9] and in [13] was Active. For the same compound, the outcome in [2], in data set [5], in [10], in data set [11] and in data set [14] was inactive. Also, the inhibition result in [15] is “Active”. In addition, the inhibition entry in data set [16], in data set [6] and in [17] was “Dose-dependent effect” in each case.
On to `Oc1ccc([C@H]2Oc3cc(O)cc(/C=C/c4ccc5c(c4)[C@@H](c4cc(O)cc6c4[C@H](c4cc(O)cc(O)c4)[C@@H](c4ccc(O)cc4)O6)[C@H](c4ccc(O)cc4)O5)c3[C@@H]2c2cc(O)cc(O)c2)cc1` [VITISIN B], for which the outcome in data set [1], in data set [2], in [3], in [4], in data set [5] and in data set [7] was Active. The result in [8], in data set [9], in data set [10], in [13] and in [14] was Active. The inhibition at 5 µg/mL in data set [18] was > 90%. Also, in [15], the inhibition entry is “Active”. For the same compound, in data set [19], the Activity entry is “Non-toxic”. The inhibition entry in [16], in data set [6] and in data set [17] was “Dose-dependent effect” each time. The outcome in data set [11] was inactive. The inhibition result in data set [20] is “inactive”.
With `Oc1ccc([C@@H]2c3c(O)cc(O)cc3[C@@H]3c4c(cc(O)c5c4[C@@H]2[C@@H](c2ccc(O)cc2)[C@@H]5c2cc(O)cc(O)c2)O[C@@H]3c2ccc(O)cc2)cc1` (relative stereo), the outcome in [2], in data set [5], in [10] and in [14] was inactive. The inhibition result in [15] was “Active”. The inhibition entry in [16], in data set [6] and in data set [17] was “Dose-dependent effect” each time.
On to `Oc1ccc([C@H]2c3c(O)cc(O)cc3[C@H]3c4c(cc(O)cc4[C@@H]2c2cc(/C=C/c4cc(O)cc5c4[C@H](c4cc(O)cc(O)c4)[C@@H](c4ccc(O)cc4)O5)ccc2O)O[C@@H]3c2ccc(O)cc2)cc1` [VITISIN A], for which the outcome in [2], in [5], in [10] and in data set [14] was inactive. The inhibition result in data set [15] is “Active”. Also, the Activity entry in [19] was “Non-toxic”. For the same compound, the inhibition result in data set [16] was “Dose-dependent effect”. For the same compound, the inhibition result in [6] is “inactive”.
Regarding `Oc1ccc(/C=C/c2cc(O)cc(O)c2)cc1` [RESVERATROL], the result in [1], in data set [3], in data set [4], in data set [7], in data set [8] and in data set [9] was Active. For the same compound, the result in [13] was Active. Also, the inhibition entry in [15] and in [16] was “Active” throughout. In addition, the inhibition result in data set [6] was “Dose-dependent effect”. Besides, the result in data set [11] was inactive. Moreover, the “growth inhibition (GI)” value in data set [12] was “Dose-dependent effect”.

These data come from ChEMBL document CHEMBL3102829, “Resveratrol oligomers inhibit biofilm formation of Escherichia coli O157:H7 and Pseudomonas aeruginosa” (J Nat Prod, 2014).
